Measured values from PubChem BioAssay AID1033 (Sanford-Burnham Center for Chemical Genomics, 2008).
The source made the active and inactive calls. The rule behind the calls is not given here.

Each compound was assayed against Chaperone protein DnaK (Escherichia coli (strain K12)) (UniProt P0A6Y8) (assay: binders of DnaK substrate-binding domain, biophysical, NMR, chaperone (AID 1033)). Details: Purified DnaK SBD, NMR ligand binding.
Chain of Chaperone protein DnaK (Escherichia coli (strain K12)) (P0A6Y8 whole entry, looked up, the tested form may be a part): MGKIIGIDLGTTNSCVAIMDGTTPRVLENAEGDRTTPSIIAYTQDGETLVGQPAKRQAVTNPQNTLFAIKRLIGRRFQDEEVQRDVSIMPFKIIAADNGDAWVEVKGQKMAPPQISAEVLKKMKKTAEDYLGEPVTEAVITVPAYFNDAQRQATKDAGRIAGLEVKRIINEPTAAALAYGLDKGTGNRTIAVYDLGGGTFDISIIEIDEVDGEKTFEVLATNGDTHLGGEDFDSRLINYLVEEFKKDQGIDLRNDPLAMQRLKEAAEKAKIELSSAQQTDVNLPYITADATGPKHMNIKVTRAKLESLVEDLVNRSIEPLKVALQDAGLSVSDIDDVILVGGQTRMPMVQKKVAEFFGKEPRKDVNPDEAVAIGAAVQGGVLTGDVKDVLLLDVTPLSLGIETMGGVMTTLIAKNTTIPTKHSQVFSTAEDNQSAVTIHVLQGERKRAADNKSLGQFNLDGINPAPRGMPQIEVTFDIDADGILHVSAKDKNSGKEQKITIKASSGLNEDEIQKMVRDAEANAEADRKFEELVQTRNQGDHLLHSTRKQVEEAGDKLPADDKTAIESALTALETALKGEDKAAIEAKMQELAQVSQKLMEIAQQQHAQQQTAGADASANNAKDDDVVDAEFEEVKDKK

| SMILES | Kd |
| --- | --- |
| COc1ccc([C@H]2COc3c(ccc(O)c3OC)C2)c(OC)c1O | > 4 mM (inactive) |
| O=C(Nc1ccc2c(c1)OCO2)c1cccs1 | > 4 mM (inactive) |
| Cc1c(C)[n+](=O)c(-c2cccs2)c(C)n1[O-] | > 4 mM (inactive) |
| Cc1cc2c(nn1)CCc1nonc1-2 | > 4 mM (inactive) |
| Cc1cc(=O)c2c(O)c(C)c(O)cc2o1 | > 4 mM (inactive) |
| Nn1cnn2c(SCc3ccccc3)nnc12 | > 4 mM (inactive) |
| O=C1CCC(C(=O)NCc2ccc(Cl)cc2)N1 (stereo unspecified) | > 4 mM (inactive) |
| CC(=O)Nc1cccc(NC(=O)c2cccnc2)c1 | > 4 mM (inactive) |
| CC(=O)c1cc(C)ccc1OC(=O)c1cccnc1 | > 4 mM (inactive) |
| Cc1cccc(NC(=O)CN2C(=O)CNC2=O)c1 | > 4 mM (inactive) |
| CC(=O)c1cc(CN2C(=O)c3ccccc3C2=O)cs1 | > 4 mM (inactive) |
| O=C(Nc1cccc2cccnc12)c1cccnc1 | > 4 mM (inactive) |
| N#Cc1cn(CC(=O)N2CCCC2)c2ccccc12 | > 4 mM (inactive) |
| CCC(=O)NC(=S)Nc1ccc(C(N)=O)cc1 | > 4 mM (inactive) |
| CC1(C)C(=O)C=C[C@@]2(C)C1C=C[C@]1(C)C2CC[C@@]2(C)[C@H](c3ccoc3)OC(=O)C3OC321 (stereo partly specified) | > 4 mM (inactive) |
| O=c1[nH]cc(S(=O)(=O)Nc2ccccc2)c(=O)[nH]1 | > 4 mM (inactive) |
| CC(C)[C@@H]1CC[C@@H](C)CC1=O | > 4 mM (inactive) |
| CCCCC(Nc1n[nH]c(=O)[nH]c1=O)C(=O)O (stereo unspecified) | > 4 mM (inactive) |
| CC1C[C@H]2CC(=O)[C@H]3CCCN4CCC[C@H]2[C@]34C1 (stereo partly specified) | > 4 mM (inactive) |
| C/C=C/COc1nc2c(c(=O)n(C)c(=O)n2C)n1C | > 4 mM (inactive) |
| NC(=NCCC[C@H](N)C(=O)O)NC(CCC(=O)O)C(=O)O (stereo partly specified) | > 4 mM (inactive) |
| O=[N+]([O-])c1cccc(-c2nnco2)c1 | > 4 mM (inactive) |
| Cc1ccc(S(=O)(=O)/N=C2\NC(=O)CS2)cc1 | > 4 mM (inactive) |
| COc1cc2c3cc1Oc1cc(ccc1O)C[C@@H]1c4c(cc(OC)c(O)c4Oc4ccc(cc4)C[C@@H]3N(C)CC2)CC[N+]1(C)C | > 4 mM (inactive) |
| Cc1nc(-c2cccc(N)c2)cs1 | > 4 mM (inactive) |

| SMILES | Kd |
| --- | --- |
| OCc1ccc(CN2CCOCC2)cc1 | > 4 mM (inactive) |
| O=C(Nn1cnnc1)c1cc2c(s1)CCCCC2 | > 4 mM (inactive) |
| O=C(O)c1ccc(-n2ccnc2)cc1 | > 4 mM (inactive) |
| Cc1cc(C)nc(/N=C(/N)N2CCC(C(N)=O)CC2)n1 | > 4 mM (inactive) |
| CC1CN(C(=O)c2ccncc2)CC(C)O1 (stereo unspecified) | > 4 mM (inactive) |
| CS(=O)(=O)NN=C1CCCCC1 | > 4 mM (inactive) |
| COC(=O)N1CCN(c2ccc(C(C)=O)cc2)CC1 | > 4 mM (inactive) |
| NC(=O)CSc1nnc2ccc(-c3ccccn3)nn12 | > 4 mM (inactive) |
| N[C@@H](Cc1ccc(O)c(O)c1)C(=O)O | > 4 mM (inactive) |
| CC(=O)c1c(C)nc(-c2ccc(Cl)cc2Cl)n1O | > 4 mM (inactive) |
| NC(=O)C(=O)NCc1ccc(Cl)cc1 | > 4 mM (inactive) |
| CC(=O)Oc1cc(-c2coc3cc(OC(C)=O)c(OC(C)=O)c(OC(C)=O)c3c2=O)cc(OC(C)=O)c1OC(C)=O | > 4 mM (inactive) |
| Cc1c(C(=O)NC2=NCCS2)oc2ccccc12 | > 4 mM (inactive) |
| Cc1ccccc1NC(=O)c1ccccc1 | inactive |
| C/C(=N\NC(N)=S)C(=O)O | > 4 mM (inactive) |
| Nc1ncnc(NCc2cccnc2)c1[N+](=O)[O-] | > 4 mM (inactive) |
| OC1CCCN(Cc2ccccc2)C1 (stereo unspecified) | > 4 mM (inactive) |
| Cc1ccc2c(c1)CC[C@H]1CC(=O)CC[C@]21C | > 4 mM (inactive) |
| NCc1ccc(-n2cccc2)cc1 | > 4 mM (inactive) |
| C=CCn1c(N)c(C(=O)N2CCOCC2)sc1=S | > 4 mM (inactive) |
| CC(C)[C@@H]1CC[C@@H](C)C[C@H]1O | > 4 mM (inactive) |
| O=C1NNC(=O)C2C3c4ccccc4C(c4ccccc43)C12 (stereo unspecified) | > 4 mM (inactive) |
| O=C1C2C3C=CC(C3)C2C(=O)N1CCCO (stereo unspecified) | > 4 mM (inactive) |
| CN(C(=O)c1cc2cccnc2n(C)c1=O)c1ccccc1 | > 4 mM (inactive) |
| O=c1[nH]cc(NC(=S)N2CCOCC2)c(=O)[nH]1 | > 4 mM (inactive) |

| SMILES | Kd |
| --- | --- |
| Cc1ccc(C)n1NC(=O)c1cccs1 | > 4 mM (inactive) |
| Cc1ccsc1/C=c1\sc2ncnn2c1=O | > 4 mM (inactive) |
| Nc1cccc(S(N)(=O)=O)c1 | > 4 mM (inactive) |
| CNc1nnc(CSc2nc(C)cc(C)n2)s1 | > 4 mM (inactive) |
| Cc1occc1C(=O)Nc1nccs1 | > 4 mM (inactive) |
| O=C1CN2C(=N1)N(Cc1ccccc1)c1ccccc12 | > 4 mM (inactive) |
| O=c1[nH]cnc2nn(-c3ccccc3)nc12 | > 4 mM (inactive) |
| Cc1ccc(-c2nc(-c3cccnc3)no2)cc1 | > 4 mM (inactive) |
| O=C(O)CCc1ccc2c(c1)OCO2 | > 4 mM (inactive) |
| O=C1CSC(c2ccccc2)N1 (stereo unspecified) | > 4 mM (inactive) |
| COc1ccc(/C=N/n2cn[nH]c2=S)cc1 | > 4 mM (inactive) |
| CSc1ccc(/C=c2\sc3ncnn3c2=O)cc1 | > 4 mM (inactive) |
| c1ccc(Cc2nnc3sc(-c4ccncc4)nn23)cc1 | > 4 mM (inactive) |
| OCc1cccc2nonc12 | > 4 mM (inactive) |
| Cc1ccc(C(=O)N2CCOCC2)cc1Cl | > 4 mM (inactive) |
| CC(=O)c1nnc2cc(C)nn2c1C | > 4 mM (inactive) |
| CCCCCCCCCCCCCCC(C(=O)OC)C(O)(CC(=O)OC)C(=O)OC (stereo unspecified) | > 4 mM (inactive) |
| CSc1nnc2[nH]c(=O)cc(N)n12 | > 4 mM (inactive) |
| O=C(Nc1nnc(-c2ccco2)o1)c1ccc([N+](=O)[O-])o1 | > 4 mM (inactive) |
| O=c1c2c(nc3nc(Cc4ccccc4)[nH]n13)CCC2 | > 4 mM (inactive) |
| Cc1ccc(C)c(C(=O)NCc2ccncc2)c1 | > 4 mM (inactive) |
| COc1ccc(-c2nnsc2N)cc1 | > 4 mM (inactive) |
| COCC(=O)Nc1ccc(C)c(Cl)c1 | > 4 mM (inactive) |
| CNC(=O)Nc1ccc(C(=O)NC)cc1 | > 4 mM (inactive) |
| Cc1nnsc1C(=O)O | > 4 mM (inactive) |

| SMILES | Kd |
| --- | --- |
| NC(=O)c1cc(N)ccc1N1CCCCC1 | > 4 mM (inactive) |
| CC1(C)C[C@@H]2C(=O)CC[C@H]3O[C@]3(C)CC[C@H]21 | > 4 mM (inactive) |
| S=C1NC(=S)NC(c2ccc3c(c2)OCO3)N1 | > 4 mM (inactive) |
| O=C1CNc2cc(C(=O)O)ccc2N1 | > 4 mM (inactive) |
| CC(C)=CCC/C(C)=C/CC/C(C)=C/CC/C(C)=C/CC/C(C)=C/CC/C(C)=C/CC/C(C)=C/CC/C(C)=C/CC/C(C)=C/CO | > 4 mM (inactive) |
| COc1ccccc1NS(=O)(=O)c1c[nH]c(=O)[nH]c1=O | > 4 mM (inactive) |
| COc1ccc(C2(CN)CCOCC2)cc1OC | > 4 mM (inactive) |
| O=C(O)C1CCCCN1Cc1ccccc1 (stereo unspecified) | > 4 mM (inactive) |
| Cc1nn(C)c(C)c1NC(=S)NC1CCCC1 | > 4 mM (inactive) |
| CC(C)(C(N)=O)/[N+]([O-])=C\c1ccccc1 | > 4 mM (inactive) |
| N#Cc1c[nH]n2c(=O)cc(Cc3ccccc3)nc12 | > 4 mM (inactive) |
| FC(F)(F)c1nnc2ccc(N3CCOCC3)nn12 | > 4 mM (inactive) |
| CC(=O)NC1=C(N(C)C)C(=O)c2ccccc2C1=O | > 4 mM (inactive) |
| Cc1ccc(CN2C3=NC(=O)CN3c3ccccc32)cc1 | > 4 mM (inactive) |
| O=C(Nc1nncs1)Oc1ccccc1 | > 4 mM (inactive) |
| O=C(Nc1ccccc1[N+](=O)[O-])c1ccc(=O)[nH]n1 | > 4 mM (inactive) |
| CNC(=O)C(=O)Nc1ccc(C)c(C)c1 | > 4 mM (inactive) |
| CC(CC(=O)O)n1cccn1 (stereo unspecified) | > 4 mM (inactive) |
| O=C(NCCCO)c1ccncc1 | > 4 mM (inactive) |
| O=C1CSC(=NC(=O)c2ccccc2)N1 | > 4 mM (inactive) |
| COc1ccc2nc(SCC(N)=O)[nH]c2c1 | > 4 mM (inactive) |
| NS(=O)(=O)c1ccc(NC(=O)/C=C\C(=O)O)cc1 | > 4 mM (inactive) |
| COc1nc(C)ccc1-c1noc(-c2ccco2)n1 | > 4 mM (inactive) |
| OCCOc1ccc(C2=NCCO2)cc1 | > 4 mM (inactive) |
| Nc1ccc(-n2cncn2)cc1 | > 4 mM (inactive) |

| SMILES | Kd |
| --- | --- |
| Cc1cc(O)c(C=O)c(O)c1C(=O)O | > 4 mM (inactive) |
| c1ccc(CCc2nc(-c3ccccn3)no2)cc1 | > 4 mM (inactive) |
| CNC(=S)Nc1ncn(Cc2cccc(F)c2)n1 | > 4 mM (inactive) |
| COc1ccc2c(c1)C(NC(C)=O)C(=O)N2C (stereo unspecified) | > 4 mM (inactive) |
| O=C(Oc1ccc2c(c1)CCC2)N1CCOCC1 | > 4 mM (inactive) |
| Nc1ncnc2nc[nH]c12 | > 4 mM (inactive) |
| CC(C)NC1CS(=O)(=O)CC1O (stereo unspecified) | > 4 mM (inactive) |
| O=C(CSC1=NCCS1)N1CCc2ccccc21 | > 4 mM (inactive) |
| Nc1ccc(S(=O)(=O)N2CCOCC2)cc1 | > 4 mM (inactive) |
| NC(=O)CN1CC(=O)NC(=O)C1 | > 4 mM (inactive) |
| O=C1C2C3C=CC(C3)C2C(=O)N1CCO (stereo unspecified) | > 4 mM (inactive) |
| NC(=O)CN1CCC(c2nc3ccccc3[nH]2)CC1 | > 4 mM (inactive) |
| NCc1cccc2c1OCCO2 | > 4 mM (inactive) |
| N#Cc1sc2nc3c(c(-c4cccnc4)c2c1N)CCC3 | > 4 mM (inactive) |
| Cc1nn(-c2ccccc2)c(Cl)c1C(N)=O | > 4 mM (inactive) |
| CN1CCC(NC(=O)c2ccccc2[N+](=O)[O-])CC1 | > 4 mM (inactive) |
| COCC(=O)/C=C1\Sc2ccccc2N1C | > 4 mM (inactive) |
| CCOC(=O)C1CCN(c2ncnc3nc[nH]c23)CC1 | > 4 mM (inactive) |
| CC1CC[C@]2(NC1)O[C@H]1CC3C4CC[C@H]5C[C@@H](O)CC[C@]5(C)C4CC[C@]3(C)[C@H]1[C@@H]2C (stereo partly specified) | > 4 mM (inactive) |
| O=C(O)c1cnc2n(c1=O)CCS2 | > 4 mM (inactive) |
| O=C(O)CSCC(=O)Nc1cccc(O)c1 | > 4 mM (inactive) |
